Laboratory results from patent publication US11427783B2, “Perfuming compositions” (Firmenich SA, priority 2016, dated 2022).
Where “and” joins values, the source holds several entries; their conditions need not be identical. Equal entries are not always repeated. Structures can show the parent of a compound that is named as a salt. Where two headings read alike, the source gives them in different places.

Assays:
[1] = Volatility of perfuming compounds in air; format: physicochemical
[2] = Table 5, perfuming compounds having a green note
[3] = Table 10, perfuming compounds having a woody note
[4] = Table 6, perfuming compounds having a fruity note
[5] = Table 9, perfuming compounds having a gourmand note
[6] = Table 8, perfuming compounds having a sweet note

CC1(C)CC=C(CCC=O)CC1
Volatility [1, 2]: 417.92 μg/l air
logP (physchem; n-octanol/water): 3.3

CCC(=O)O[C@H]1C[C@@H]2CC[C@@]1(C)C2(C)C
Volatility (μg/l air) [1, 3]: 216.42 μg/l air
logP (physchem; n-octanol/water): 4.66

C/C=C/C(=O)C1=C(C)C=CCC1(C)C
Volatility (μg/l air) [1, 4]: 119.10 μg/l air and 91.38 μg/l air
Volatility (μg/l air) [1, 3]: 91.38 μg/l air
logP (physchem; n-octanol/water): 3.27

CC(C)[C@@H]1CC[C@@H](C)CC1=NO
Volatility [1, 2]: 22.29 μg/l air
logP (physchem; n-octanol/water): 2.81

C[C@@H]1CC[C@H]2[C@H](C)C(=O)O[C@@H]2C1
Volatility (μg/l air) [1, 5]: 74.03 μg/l air
logP (physchem; n-octanol/water): 2.11

C/C=C(\C)C(=O)OCC/C=C\CC
Volatility [1, 2]: 168.78 μg/l air
logP (physchem; n-octanol/water): 3.96

CC/C(=C\C[C@H]1CC=C(C)C1(C)C)CO
Volatility (μg/l air) [1, 3]: 2.75 μg/l air
logP (physchem; n-octanol/water): 4.44

COC(C)(C)[C@H]1CC=C(C)CC1
Volatility [1, 2]: 993.39 μg/l air
logP (physchem; n-octanol/water): 4.59

CCCC(O)CC[C@@H]1[C@@H](C)CCCC1(C)C (mixture of isomers)
Volatility (μg/l air) [1, 3]: 2.34 μg/l air
logP (physchem; n-octanol/water): 5.42

CC(=O)O[C@@H]1C(C)(C)CCC[C@]12CC=C(C)C[C@H]2C (racemic)
Volatility (μg/l air) [1, 3]: 8.25 μg/l air
logP (physchem; n-octanol/water): 6.44

CC(=O)O[C@@H]1CC[C@@H]2C(C)(C)CCC[C@@]2(C)C1 (racemic)
Volatility (μg/l air) [1, 3]: 14.41 μg/l air
logP (physchem; n-octanol/water): 5.5

C=CC1(C)CCCC(C)(C)O1 (racemic)
Volatility [1, 2]: 23116.66 μg/l air
logP (physchem; n-octanol/water): 3.59

CCCCCC1(C)CCC(C)(C)C1=O (racemic)
logP (physchem; n-octanol/water): 4.63

CC1=CCC(CCC(C)C(C)O)C1(C)C (racemic)
Volatility (μg/l air) [1, 3]: 5.22 μg/l air
logP (physchem; n-octanol/water): 4.68

CC1CCC2C(C)(C)C3CC12CCC3(C)O (racemic)
Volatility (μg/l air) [1, 3]: 11.83 μg/l air
logP (physchem): 5.39

CC1COCc2cc3c(cc21)C(C)(C)C(C)C3(C)C (racemic)
Volatility (μg/l air) [1, 4]: 1.59 μg/l air
logP (physchem): 6.57

CC(=O)/C=C/C1C(C)=CCCC1(C)C (racemic)
Volatility [1, 2]: 68.11 μg/l air
logP (physchem): 4.06

C=C1CCCC(C)(C)C1C(=O)OC (racemic)
logP (physchem; n-octanol/water): 3.93

CC/C=C\C[C@H]1C(=O)CC[C@@H]1CC(=O)OC (racemic)
Volatility (μg/l air) [1, 4]: 1.59 μg/l air
logP (physchem; n-octanol/water): 2.33

C=CC(O)CCCCC (racemic) [(+−)-1-octen-3-ol]
Volatility [1, 2]: 3030.11 μg/l air
logP (physchem; n-octanol/water): 2.33

CC(CO)c1ccccc1 (racemic) [(+−)-2-phenyl-1-propanol]
Volatility [1, 2]: 142.19 μg/l air
logP (physchem; n-octanol/water): 1.74

CCCCCCCCC1CCC(=O)O1 (racemic) [(+−)-5-octyldihydro-2(3H)-furanone]
Volatility (μg/l air) [1, 4]: 1.44 μg/l air
logP (physchem; n-octanol/water): 3.82

CCOC(C)OC1CCCCCCCCCCC1 (racemic) [(+−)-(1-ethoxyethoxy)cyclododecane]
Volatility (μg/l air) [1, 3]: 5.04 μg/l air
logP (physchem; n-octanol/water): 6.68

O=C1CCCCCCCCCCC(=O)OCCO1 [1,4-dioxacyclohexadecane-5,16-dione]
Volatility (μg/l air) [1, 6]: 0.46 μg/l air
logP (physchem; n-octanol/water): 3.83

C/C=C/c1ccc(OC)cc1 [1-methoxy-4-[(1E)-1-propen-1-yl]benzene]
Volatility (μg/l air) [1, 6]: 184.60 μg/l air
Volatility (μg/l air) [1, 5]: 184.60 μg/l air
logP (physchem): 3.58

O=C1CCC2(CCCCC2)O1 [1-oxaspiro[4.5]decan-2-one]
Volatility (μg/l air) [1, 5]: 62.86 μg/l air
logP (physchem; n-octanol/water): 1.66

OCCc1ccccc1 [2-PHENYLETHANOL]
Volatility (μg/l air) [1, 6]: 159.75 μg/l air
Volatility (μg/l air) [1, 5]: 159.75 μg/l air

CC(=O)OCCc1ccccc1 [2-PHENYLETHYL ACETATE]
Volatility (μg/l air) [1, 6]: 201.26 μg/l air
Volatility (μg/l air) [1, 5]: 201.26 μg/l air

CC(C)C(=O)OCCc1ccccc1 [2-PHENYLETHYL ISOBUTYRATE]
Volatility (μg/l air) [1, 4]: 67.38 μg/l air
Volatility (μg/l air) [1, 6]: 67.38 μg/l air
Volatility (μg/l air) [1, 5]: 67.38 μg/l air

CC(C)(C)C(=O)OCCc1ccccc1 [2-PHENYLETHYL PIVALATE]
Volatility (μg/l air) [1, 4]: 71.44 μg/l air
Volatility (μg/l air) [1, 6]: 71.44 μg/l air
Volatility (μg/l air) [1, 5]: 71.44 μg/l air

COc1ccc(OC)c(C(C)(C)C)c1 [2-TERT-BUTYL-1,4-DIMETHOXYBENZENE]
Volatility (μg/l air) [1, 3]: 82.95 μg/l air

CC(=O)OCCC(C)CCC=C(C)C (stereo not drawn) [3,7-DIMETHYL-6-OCTENYL ACETATE]
Volatility (μg/l air) [1, 4]: 128.72 μg/l air

CCCC=C1OC(=O)c2ccccc21 [3-BUTYLIDENE-1-BENZO[C]FURANONE]
Volatility (μg/l air) [1, 6]: 14.37 μg/l air
Volatility (μg/l air) [1, 5]: 14.37 μg/l air

Cc1occc(=O)c1O [3-HYDROXY-2-METHYL-4(4H)-PYRANONE]
Volatility (μg/l air) [1, 4]: 92.42 μg/l air
Volatility (μg/l air) [1, 6]: 92.42 μg/l air

CC(C)CCOCCc1ccccc1 [3-METHYLBUTYL 2-PHENYLETHYL ETHER]
Volatility (μg/l air) [1, 4]: 110.11 μg/l air
Volatility (μg/l air) [1, 6]: 110.11 μg/l air
Volatility (μg/l air) [1, 5]: 110.11 μg/l air

CCOc1cc(C=O)ccc1O [3-ethoxy-4-hydroxybenzaldehyde]
Volatility (μg/l air) [1, 6]: 0.11 μg/l air
logP (physchem): 1.27

CC(C)(C)C1CCC(=O)CC1 [4-(2-methyl-2-propanyl)cyclohexanone]
Volatility (μg/l air) [1, 3]: 755.28 μg/l air
logP (physchem; n-octanol/water): 2.77

CC(=O)CCc1ccc(O)cc1 [4-(4-HYDROXY-1-PHENYL)-2-BUTANONE]
Volatility (μg/l air) [1, 4]: 0.36 μg/l air

COc1ccc(CCC(C)=O)cc1 [4-(4-METHOXYPHENYL)-2-BUTANONE]
Volatility (μg/l air) [1, 4]: 5.58 μg/l air
Volatility (μg/l air) [1, 6]: 5.58 μg/l air
Volatility (μg/l air) [1, 5]: 5.58 μg/l air

COc1ccc(C=O)cc1 [4-METHOXYBENZALDEHYDE]
Volatility [1, 2]: 98.47 μg/l air

COc1ccc(COC(C)=O)cc1 [4-METHOXYBENZYL ACETATE]
Volatility (μg/l air) [1, 4]: 17.59 μg/l air

CC(=O)OC1CCC2C(C)(C)CCCC2(C)C1 (stereo not drawn) [5,5,8a-trimethyldecahydro-2-naphthalenyl acetate]
Volatility (μg/l air) [1, 3]: 14.41 μg/l air
logP (physchem; n-octanol/water): 5.5

CC=CC(=O)C(C)CC (stereo not drawn) [5-METHYL-2-HEPTEN-4-ONE]
Volatility (μg/l air) [1, 6]: 5525.83 μg/l air

CCCCC1CCCC(=O)O1 (stereo not drawn) [5-NONANOLIDE]
Volatility (μg/l air) [1, 4]: 23.87 μg/l air
Volatility (μg/l air) [1, 6]: 23.87 μg/l air
Volatility (μg/l air) [1, 5]: 23.87 μg/l air

COCCc1ccccc1 [(2-METHOXYETHYL)BENZENE]
Volatility [1, 2]: 1239.07 μg/l air

CC(=O)/C=C/C1=C(C)CCCC1(C)C [(3E)-4-(2,6,6-trimethyl-1-cyclohexen-1-yl)-3-buten-2-one]
Volatility (μg/l air) [1, 3]: 35.41 μg/l air
logP (physchem; n-octanol/water): 3.88

CC/C=C\CCOC(=O)c1ccccc1O [(3Z)-3-hexen-1-yl salicylate]
Volatility [1, 2]: 4.34 μg/l air
logP (physchem; n-octanol/water): 4.83

CCC/C=C/CO [(E)-2-HEXEN-1-OL]
Volatility [1, 2]: 3752.17 μg/l air

CC(=O)OC/C=C(\C)CCC=C(C)C [(E)-3,7-DIMETHYL-2,6-OCTADIENYL ACETATE]
Volatility (μg/l air) [1, 4]: 85.23 μg/l air

O=C/C=C/c1ccccc1 [(E)-3-PHENYL-2-PROPENAL]
Volatility (μg/l air) [1, 3]: 70.14 μg/l air

N#C/C=C/c1ccccc1 [(E)-3-PHENYL-2-PROPENENITRILE]
Volatility (μg/l air) [1, 3]: 66.00 μg/l air

CC(=O)OC/C=C/c1ccccc1 [(E)-3-PHENYL-2-PROPENYL ACETATE]
Volatility (μg/l air) [1, 4]: 20.47 μg/l air

CCC(=O)OC/C=C/c1ccccc1 [(E)-3-PHENYL-2-PROPENYL PROPANOATE]
Volatility (μg/l air) [1, 4]: 8.14 μg/l air

CCOCOC1CCCCCCCCCCC1 [(ETHOXYMETHOXY)CYCLODODECANE]
Volatility (μg/l air) [1, 3]: 6.63 μg/l air

CC/C=C\CCO [(Z)-3-HEXEN-1-OL]
Volatility [1, 2]: 5986.62 μg/l air

CC/C=C\CCOC(C)=O [(Z)-3-HEXENYL ACETATE]
Volatility [1, 2]: 3398.34 μg/l air

CCCCC/C=C\CCC=O [(Z)-4-DECENAL]
Volatility [1, 2]: 629.54 μg/l air

CC/C=C\CCCCCO [(Z)-6-NONEN-1-OL]
Volatility ([1]; Table 4, watery note): 6.91 μg/l air
Volatility [1, 2]: 6.91 μg/l air
logP (physchem): 3.44
logP (physchem; n-octanol/water): 3.44

CC/C=C\CCCCC=O [(Z)-6-NONENAL]
Volatility [1, 2]: 2431.73 μg/l air

C=CCOC(=O)CCCCC [ALLYL HEXANOATE]
logP (physchem; n-octanol/water): 3.62

CC(C)CC(=O)OCc1ccccc1 [BENZYL 3-METHYLBUTANOATE]
Volatility (μg/l air) [1, 4]: 63.56 μg/l air
Volatility (μg/l air) [1, 6]: 63.56 μg/l air

C/C=C(\C)C(=O)OCc1ccccc1 [BENZYL (E)-2-METHYL-2-BUTENOATE]
Volatility (μg/l air) [1, 4]: 33.88 μg/l air
Volatility (μg/l air) [1, 3]: 33.88 μg/l air

O=COCc1ccccc1 [BENZYL FORMATE]
Volatility [1, 2]: 1339.53 μg/l air

N#CC(=C1CCCCC1)c1ccccc1 [CYCLOHEXYLIDENE(PHENYL)ACETONITRILE]
Volatility [1, 2]: 0.96 μg/l air

CCCCSCCCC [DIBUTYL SULFIDE]
Volatility [1, 2]: 2766.10 μg/l air
logP (physchem; n-octanol/water): 4.86

CCOC(=O)C1OC1(C)c1ccccc1 (stereo not drawn) [ETHYL 2,3-EPDXY-3-PHENYLBUTANOATE]
Volatility (μg/l air) [1, 4]: 12.97 μg/l air

CCOC(=O)/C=C/c1ccccc1 [ETHYL (E)-3-PHENYL-2-PROPENOATE]
Volatility (μg/l air) [1, 4]: 20.55 μg/l air

CCOC(C)=O [ETHYL ACETATE]
logP (physchem): 0.8

CCOC(=O)c1ccccc1 [ETHYL BENZOATE]
logP (physchem): 2.51

CCOC(=O)C(C)C [ETHYL ISOBUTYRATE]
logP (physchem; n-octanol/water): 2.03

CCOC(=O)Cc1ccccc1 [ETHYL PHENYLACETATE]
logP (physchem): 2.1

CCCCCCC=O [HEPTANAL]
Volatility [1, 2]: 22184.00 μg/l air
logP (physchem; n-octanol/water): 2.15

COC(=O)/C=C/c1ccccc1 [METHYL (E)-3-PHENYL-2-PROPENOATE]
Volatility (μg/l air) [1, 4]: 61.65 μg/l air

COC(=O)Cc1ccccc1 [METHYL PHENYLACETATE]
Volatility (μg/l air) [1, 6]: 555.30 μg/l air
Volatility (μg/l air) [1, 5]: 555.30 μg/l air

CC(=O)OCc1ccccc1 [benzyl acetate]
logP (physchem; n-octanol/water): 2.04

CCOC(=O)/C(C)=C/C(C)C [ethyl (2E)-2,4-dimethyl-2-pentenoate]
logP (physchem; n-octanol/water): 3.35

CCCCCCC(=O)OCC [ethyl heptanoate]
logP (physchem; n-octanol/water): 3.58

COC(=O)C=C1CCCC1 [methyl cyclopentylideneacetate]
logP (physchem; n-octanol/water): 2.02

(−)-(1S)-2,6,6-TRIMETHYL-BICYCLO[3.1.1]HEPT-2-ENE
Volatility [1, 2]: 33722.60 μg/l air
